Results reported in patent US5055396A, “Diagnostic methods and systems for quantifying APO AI” (Scripps Clinic and Research Foundation, priority 1987, dated 1991).

System: MAB AI-18
Assay: Competitive RIA: inhibition of MAB AI-18 binding to solid-phase Apo AI/HDL by competitor antigen or peptide
Set-up: species or system mouse
Details: for ability of the peptide to immunologically mimic a native conserved epitope of Apo AI: FIG. 5, proline 99 deleted or substituted by glycine; for Immunoreactivity (concentration of peptide competitor required to achieve a B/Bo value of 0.5): competitive RIA, MAB AI-18 ascites 1:1.25×10^5, solid-phase Apo AI/HDL; for B/Bo: background-adjusted; for expression of the epitope recognized by MAB AI-18 after NaOH treatment: NaOH treated Apo AI/HDL, 18 hours at about 20 degrees C; for immunoreactivity values (in words): higher value represents a lower affinity
Protocol: One hundred ul of PBS (0.15M NaCl, 0.01M NaPO4, pH 7.2) containing 10 ug/ml Apo AI/HDL were admixed to the wells of microtiter plates. The plates were maintained for 1 hour at 20 degrees C. on a rotating platform to allow the Apo AI/HDL to adhere to the wells and form solid supports. After aspirating excess liquid from the wells, 200 ul of block solution (3% BSA, 3% NGS in PBS) was admixed to each well, and the wells were maintained for 30 minutes at 20 degrees C. on a rotating platform. Subsequently, the blocking solution was removed by aspiration and the wells were washed 3 times with SPRIA buffer.
In control wells either competing antigen or antibody was replaced by PBS containing 3% BSA.
The immunoreaction admixtures were maintained about 16 hours at 4 degrees C. on a rotating platform to permit formation of solid-phase immunoreaction products. […] The labeling immunoreaction admixtures so formed were maintained for 4 hours at 4 degrees C. on a rotating platform.
[…] of serial 3 fold dilutions of each sample prepared in Table 3 were admixed as competitor in the RIA described in this Example.
Fifty microliters of the stock of 2 fold serial dilutions of the stock were used as competitor in the RIA described in this Example.

Substance	ability of the peptide to immunologically mimic a native conserved epitope of Apo AI	Immunoreactivity (concentration of peptide competitor required to achieve a B/Bo value of 0.5)	slope of logit transformed competition data (competitor HDL or fresh plasma, FIG. 2)	CPM of 125I-labeled solid phase immunoreaction product (competitor dilution 1:3) [CPM]	B/Bo (competitor dilution 1:3)	CPM of 125I-labeled solid phase immunoreaction product (competitor dilution 1:9) [CPM]	B/Bo (competitor dilution 1:9)	CPM of 125I-labeled solid phase immunoreaction product (competitor dilution 1:27) [CPM]	B/Bo (competitor dilution 1:27)	CPM of 125I-labeled solid phase immunoreaction product (competitor dilution 1:81) [CPM]	B/Bo (competitor dilution 1:81)	CPM of 125I-labeled solid phase immunoreaction product (competitor dilution 1:243) [CPM]	B/Bo (competitor dilution 1:243)	CPM of 125I-labeled solid phase immunoreaction product (competitor dilution 1:729) [CPM]	B/Bo (competitor dilution 1:729)	CPM of 125I-labeled solid phase immunoreaction product (competitor dilution Neat) [CPM]	B/Bo (competitor dilution Neat)	expression of the epitope recognized by MAB AI-18 after NaOH treatment	immunoreactivity values (in words)
AKVQGYLDDFQ [AI95-105 (G/P)]	substantially decreases the ability of the peptide to immunologically mimic a native conserved epitope	> 10,000 ug protein/ml																	
AKVQPYLDDFQ [AI95-105]		45 ug protein/ml																	
AKVQYLDDFQ [AI95-105 (-P)]	substantially decreases the ability of the peptide to immunologically mimic a native conserved epitope	> 10,000 ug protein/ml																	
Apo AI/HDL: Apo AI when it is present on HDL particles [reference compound]			-2.03	2348	0.277	3778	0.460	5057	0.624	5868	0.729	6380	0.794	6679	0.833	1152	0.123		
B: NaOH treated Apo AI/HDL, 5 ul 0.01N NaOH, pH 6.34				2852	0.341	4399	0.540	6195	0.771	6988	0.872	7483	0.936	7406	0.926	1110	0.118	stable to NaOH treatments	
C: NaOH treated Apo AI/HDL, 50 ul 0.01N NaOH, pH 7.04				2479	0.293	4502	0.553	6005	0.746	6618	0.825	7277	0.909	7485	0.936	1070	0.112	stable to NaOH treatments	
D: NaOH treated Apo AI/HDL, 5 ul 1N NaOH, pH 10.67				1174	0.126	2746	0.328	3854	0.470	5220	0.645	6385	0.795	6917	0.863	589	0.051	decrease in expression of the epitope	
E: NaOH treated Apo AI/HDL, 15 ul 1N NaOH, pH 11.33				553	0.046	881	0.088	1543	0.173	2283	0.268	3338	0.404	4918	0.607	263	0.009	decrease in expression of the epitope	
F: NaOH treated Apo AI/HDL, 50 ul 1N NaOH, pH 11.86				185	-.001	281	0.011	342	0.019	516	0.041	744	0.071	1295	0.141	222	0.004	decrease in expression of the epitope	
G: NaOH treated Apo AI/HDL, 250 ul 1N NaOH, pH 12.85				305	0.016	339	0.019	497	0.039	771	0.074	1157	0.124	1891	0.218	195	0.000	decrease in expression of the epitope	
KVQPYL (UniProt P02647 120-125, looked up, fragment) [AI96-101]		> 10,000 ug protein/ml																	
LDDFQKKWQEE [AI101-111]		> 10,000 ug protein/ml																	high immunoreactivity values
LEEVKAKVQPYLDDFQKKWQEE [AI90-111]		9 ug protein/ml																	
QKKWQEEMELYR [AI105-116]		> 10,000 ug protein/ml																	high immunoreactivity values
SKDLEEVKAKVQPYL [AI87-101]		8,400 ug protein/ml																	high immunoreactivity values
SKDLEEVKAKVQPYLDDFQ [AI87-105]		10 ug protein/ml																	
Sample A: Apo AI/HDL, no NaOH treatment control, pH 6.26 [reference compound]				2542	0.301	4799	0.527	5786	0.718	6745	0.841	7270	0.090	7255	0.907	965	0.099		
VKAKVQPYL [AI93-101]		> 10,000 ug protein/ml																	high immunoreactivity values
YLDDFQ (UniProt P02647 124-129, looked up, fragment) [AI100-105]		> 10,000 ug protein/ml																	high immunoreactivity values
